Laboratory results taken from patent publication US20210137828A1, “Cannabidiol Sublingual Spray Formulations” (priority 2019, published 2021).

Experiments:
[1] = system: chronic inflammatory and neuropathic pain; conditions: rodents; cited from earlier work
[2] = system: non-cancer cells; conditions: compared with breast tumor cell lines; cited from earlier work
[3] = 700 milligrams per day for 6 weeks; cited from earlier work
[4] = Impurity stability of CBD sublingual spray formulation; format: physicochemical; set-up: unit not given here
Protocol: Stability data was established for formulations with 25 mg/spray, 0.2% sucralose, 0.4% strawberry flavor, and 10% ethanol in the presence of MCT oil. […] This can be extrapolated to assigning a one year expiration at room temperature for lipid based formulation. See Table 1 through 2 for stability data of impurities and assay.

[5] = system: seizure frequency; conditions: cited from earlier work
[6] = system: seizures; conditions: doses up to 25 milligrams per kilogram of body weight; cited from earlier work
[7] = system: breast tumor cell lines; conditions: different breast tumor cell lines; cited from earlier work
[8] = system: incidence of diabetes; conditions: non-obese diabetic mice, cited from earlier work
[9] = system: anxiety; conditions: patients with social anxiety disorder; cited from earlier work
[10] = system: estrogen receptor-positive and estrogen receptor-negative breast cancer cells; conditions: cited from earlier work
[11] = system: non-tumorigenic, mammary cells; conditions: at concentrations effective in tumor cells; cited from earlier work
[12] = system: vascular damage, vascular hyperpermeability; conditions: high glucose environment, inflammation or induction of type 2 diabetes in animal models; cited from earlier work
[13] = system: toxin-induced vomiting; conditions: low doses; cited from earlier work
[14] = system: human experimental psychosis; conditions: cited from earlier work

## C=C(C)[C@@H]1CCC(C)=C[C@H]1c1c(O)cc(CCCCC)cc1O [CBD, cannabidiol]
[1]
  Analgesic tolerance: without causing analgesic tolerance
  Suppression of chronic inflammatory and neuropathic pain: significantly suppressed chronic inflammatory and neuropathic pain
[2]
  Potency in non-cancer cells: significantly less potency in non-cancer cells
[3]
  Overt toxicity in humans: did not show any overt toxicity
[4]; T = 0
  CBD peak (RRT 1.00) in impurity stability data: 99.24
[4]; T = 2wk 25 C.
  CBD peak (RRT 1.00) in impurity stability data: 99.05
[4]; T = 2wk 40 C.
  CBD peak (RRT 1.00) in impurity stability data: 98.60
[4]; T = 4wk 25 C.
  CBD peak (RRT 1.00) in impurity stability data: 98.75
[4]; T = 4wk 40 C.
  CBD peak (RRT 1.00) in impurity stability data: 97.96
[5]; 16 of 19 parents
  Parents reporting a reduction in their child's seizure frequency: 84%
[5]; eight of 19 parents
  Parents reporting greater than 80 percent reduction in seizure frequency: 42%
[5]; parent survey, children with epilepsy
  Side effects: drowsiness and fatigue
[5]; six of 19 parents
  Parents reporting 25-60 percent seizure reduction: 32%
[5]; two of 19 parents
  Parents reporting complete seizure freedom: 11%
[6]
  Tolerability: generally well-tolerated
[7]
  Inhibition of growth of breast tumor cell lines: potently and selectively inhibited the growth
[8]; 86 percent in non-treated mice
  Incidence of diabetes: 30%
[8]
  Insulitis, histological examination of pancreatic islets: significantly reduced insulitis
  Plasma levels of pro-inflammatory cytokines: significant reduction
[9]
  Effect on anxiety: reduce anxiety
[10]
  Cell death of breast cancer cells: induced a concentration-dependent cell death
[11]
  Effect on non-tumorigenic mammary cells: little effect
[12]
  Protection against vascular damage: protects against the vascular damage
[13]
  Effect on toxin-induced vomiting: suppresses toxin-induced vomiting
[14]
  Effect on human experimental psychosis: prevents human experimental psychosis
